For 22 compounds, IC50 results are on record in patent publication US12479827B2, “Heteroaromatic carboxamide derivatives as plasma kallikrein inhibitors” (Boehringer Ingelheim International GmbH, priority 2020, dated 2025).

One assay deals with T1, Human PKK (Homo sapiens, UniProt P03952).
T1 construct: purchased Enzyme Research Laboratories
Put plainly: Inhibition of PKK using an endpoint assay (human PKK). It counts as biochemical. The settings on record: fluorogenic substrate H-Pro-Phe-Arg-AMC, 1 h room temperature, method names human or rat PKK, table does not say which. The procedure: The ability of compounds of formula (I) to inhibit plasma kallikrein (PKK), Factor XIIa (FXIIa), Factor XIa (FXIa), Factor Xa (FXa), Factor IIa (alpha-thrombin; FIIa), plasmin, trypsin, tissue kallikrein 1 (TK1), Factor VIIa (FVIIa), or FVIIa complexed with Tissue Factor, phospholipids and CaCl2 (FVIIa/TF/PL/CaCl2) is determined using the following biochemical assays in assay buffer (100 mM Tris, 150 mM NaCL, adjusted to a pH of 7.8 with HCl, and containing 0.1% (w/v) BSA and 0.05% (v/v) Tween20) in the presence of 1% (v/v) DMSO:
Subsequently, PPACK II (Calbiochem) is added as a stop solution to achieve a final concentration of 1 μM and fluorescence is measured using an Envision Reader (PerkinElmer) with the wavelength excitation setting of 355 nm and the wavelength emission setting of 460 nm.

Assay [1] has as its target T2, PKK in kaolin activated human platelet poor plasma (Homo sapiens, UniProt P03952).
T2 construct: Platelet poor plasma (PPP) obtained from human wholeblood; from tissue
Briefly: Inhibition of PKK in kaolin activated human PPP.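 Note: readout is the rate of fluorogenic substrate cleavage in rfu per min.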 The class given is biochemical. The settings on record: 25-750 μg/mL kaolin, global fit, text b200 calls the values IC90. The procedure: Platelet poor plasma (PPP) obtained from human wholeblood, anticoagulated with Na-Citrate, is incubated with various concentrations of the test compound together with either 25, 75, 250, or 750 μg/mL kaolin in assay buffer for 20 min at 37° C. such that for each kaolin dose used a concentration response is obtained for the test compound.

The term IC50 denotes the concentration that inhibits the measured activity by half.

T2 sequence (P03952 391-638 limits assumed): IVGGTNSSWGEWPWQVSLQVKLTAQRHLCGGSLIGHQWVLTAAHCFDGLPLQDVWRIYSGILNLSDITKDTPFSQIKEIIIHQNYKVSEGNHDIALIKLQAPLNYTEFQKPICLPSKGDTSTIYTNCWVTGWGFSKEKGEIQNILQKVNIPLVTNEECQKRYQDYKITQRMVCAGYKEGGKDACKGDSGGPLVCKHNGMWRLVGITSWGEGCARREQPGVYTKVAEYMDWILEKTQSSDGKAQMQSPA
T2 sequence (P03952 20-390 limits assumed): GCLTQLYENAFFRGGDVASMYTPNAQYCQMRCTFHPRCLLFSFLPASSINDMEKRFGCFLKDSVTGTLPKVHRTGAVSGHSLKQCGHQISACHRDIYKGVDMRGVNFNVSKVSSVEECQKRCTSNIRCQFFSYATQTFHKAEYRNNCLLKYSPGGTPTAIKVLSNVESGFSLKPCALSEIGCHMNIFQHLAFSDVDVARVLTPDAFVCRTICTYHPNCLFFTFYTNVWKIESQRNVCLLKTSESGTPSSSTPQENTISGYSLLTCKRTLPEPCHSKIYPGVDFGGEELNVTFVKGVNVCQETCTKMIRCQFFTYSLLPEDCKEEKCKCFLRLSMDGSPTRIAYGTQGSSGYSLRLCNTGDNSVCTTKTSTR
T1 sequence (P03952 20-390 limits assumed): as above
T1 sequence (P03952 391-638 limits assumed): as the sequence (P03952 391-638 limits assumed) above

On to `Cn1cnc2c1CC[C@H]2NC(=O)c1cnn(Cc2ccc(N3CC4CC4C3)cn2)c1` (stereo partly drawn) [Example 9, 1-[(5-{3-Azabicyclo[3.1.0]hexan-3-yl}pyridin-2-yl)methyl]-N-[(4R)-1-methyl-1H,4H,5H,6H-cyclopenta[d]imidazol-4-yl]-1H-pyrazole-4-carboxamide], for which the half-maximal inhibitory concentration (IC50) amounted to 3.8 nM at Human PKK and 603 nM in assay [1].
For `Cn1cnc2c1CC[C@H]2NC(=O)c1cn(Cc2ccc(N3CC4(CC4)C3)nc2F)nn1` [Example 10, 1-[(6-{5-Azaspiro[2.3]hexan-5-yl}-2-fluoropyridin-3-yl)methyl]-N-[(4R)-1-methyl-1H,4H,5H,6H-cyclo-penta[d]imidazol-4-yl]-1H-1,2,3-triazole-4-carboxamide] the same measures were 2.5 nM and 789 nM.
In the case of `Cn1cnc2c1CC[C@H]2NC(=O)c1cn(Cc2ccc(N3CC4(CC4)C3)nc2F)cn1` [Example 11, 1-[(6-{5-Azaspiro[2.3]hexan-5-yl}-2-fluoropyridin-3-yl)methyl]-N-[(4R)-1-methyl-1H,4H,5H,6H-cyclopenta[d]imidazol-4-yl]-1H-imidazole-4-carboxamide], the IC50 turned out to be 2.1 nM on Human PKK and 300 nM in assay [1].
For `Cn1cnc2c1CC[C@H]2NC(=O)c1cnn(Cc2ccc(N3CC4(CC4)C3)nc2F)c1` [Example 12, 1-[(6-{5-Azaspiro[2.3]hexan-5-yl}-2-fluoropyridin-3-yl)methyl]-N-[(4R)-1-methyl-1H,4H,5H,6H-cyclopenta[d]imidazol-4-yl]-1H-pyrazole-4-carboxamide], the results for the IC50 (on Human PKK; in assay [1]) were 3.4 nM and 802 nM, respectively.
For `Cn1cnc2c1CC[C@H]2NC(=O)c1cnn(Cc2ccc(N3CC4(CC4)C3)nc2Br)c1` [Example 13, 1-[(6-{5-Azaspiro[2.3]hexan-5-yl}-2-bromopyridin-3-yl)methyl]-N-[(4R)-1-methyl-1H,4H,5H,6H-cyclopenta[d]imidazol-4-yl]-1H-pyrazole-4-carboxamide], the figures for the half-maximal inhibitory concentration (IC50) (at Human PKK; in assay [1]) were 1.1 nM and 451 nM, respectively.
Taken in the same sequence, the figures for `Cn1cnc2c1CC[C@H]2NC(=O)c1cn(Cc2ccc(N3CC4C(C3)C4(F)F)nc2Br)nn1` (stereo partly drawn) [Example 14, 1-[(2-Bromo-6-{6,6-difluoro-3-azabicyclo-[3.1.0]hexan-3-yl}pyridin-3-yl)methyl]-N-[(4R)-1-methyl-1H,4H,5H,6H-cyclopenta[d]imidazol-4-yl]-1H-1,2,3-triazole-4-carboxamide] were 1 nM and 636 nM.
As to `Cn1cnc2c1CC[C@H]2NC(=O)c1cnn(Cc2ccc(N3CC4C(C3)C4(F)F)nc2Br)c1` (stereo partly drawn) [Example 15, 1-[(2-Bromo-6-{6,6-difluoro-3-azabicyclo-[3.1.0]hexan-3-yl}pyridin-3-yl)methyl]-N-[(4R)-1-methyl-1H,4H,5H,6H-cyclopenta[d]imidazol-4-yl]-1H-pyrazole-4-carboxamide], the 50% inhibitory concentration (IC50) amounted to 1.1 nM against Human PKK and 414 nM in assay [1].
For `Cn1cnc2c1CC[C@H]2NC(=O)c1cn(Cc2ccc(N3CC4CC4C3)nc2F)nn1` (stereo partly drawn) [Example 17, 1-[(6-{3-Azabicyclo[3.1.0]hexan-3-yl}-2-fluoropyridin-3-yl)methyl]-N-[(4R)-1-methyl-1H,4H,5H,6H-cyclo-penta[d]imidazol-4-yl]-1H-1,2,3-triazole-4-carboxamide] the same measures were 2 nM and 818 nM.
For `Cn1cnc2c1CC[C@H]2NC(=O)c1cnn(Cc2ccc(N3CC4C(C3)C4(F)F)nc2F)c1` (stereo partly drawn) [Example 18, 1-[(6-{6,6-Difluoro-3-azabicyclo[3.1.0]hexan-3-yl}-2-fluoropyridin-3-yl)methyl]-N-[(4R)-1-methyl-1H,4H,5H,6H-cyclopenta[d]imidazol-4-yl]-1H-pyrazole-4-carboxamide] the same measures were 2.1 nM and 460 nM.
Regarding `Cn1cnc2c1CC[C@H]2NC(=O)c1cn(Cc2ccc(N3CC4(CC4)C3)nc2Cl)cn1` [Example 21, 1-[(6-{5-Azaspiro[2.3]hexan-5-yl}-2-chloropyridin-3-yl)methyl]-N-[(4R)-1-methyl-1H,4H,5H,6H-cyclopenta[d]imidazol-4-yl]-1H-imidazole-4-carboxamide], the IC50 stood at 0.9 nM against Human PKK and 325 nM in assay [1].
As for `Cn1cnc2c1CC[C@H]2NC(=O)c1cn(Cc2ccc(N3CC4C(C3)C4(F)F)nc2F)nn1` (stereo partly drawn) [Example 25, 1-[(6-{6,6-Difluoro-3-azabicyclo[3.1.0]hexan-3-yl}-2-fluoropyridin-3-yl)methyl]-N-[(4R)-1-methyl-1H,4H,5H,6H-cyclopenta[d]imidazol-4-yl]-1H-1,2,3-triazole-4-carboxamide], the results for the concentration for half-maximal inhibition (IC50) (against Human PKK; in assay [1]) were 2 nM and 286 nM, respectively.
For `Cn1cnc2c1CC[C@H]2NC(=O)c1cn(Cc2ccc(N3CC4(CC4)C3)nc2)nn1` [Example 26, 1-[(6-{5-Azaspiro[2.3]hexan-5-yl}pyridin-3-yl)-methyl]-N-[(4R)-1-methyl-1H,4H,5H,6H-cyclopenta[d]imidazol-4-yl]-1H-1,2,3-triazole-4-carboxamide] the same measures were 4.9 nM and 343 nM.
Taken in the same sequence, the figures for `Cn1cnc2c1CC[C@H]2NC(=O)c1cn(Cc2ccc(N3CC4C(C3)C4(F)F)nc2Br)cn1` (stereo partly drawn) [Example 28, 1-[(2-Bromo-6-{6,6-difluoro-3-azabicyclo-[3.1.0]hexan-3-yl}pyridin-3-yl)methyl]-N-[(4R)-1-methyl-1H,4H,5H,6H-cyclopenta[d]imidazol-4-yl]-1H-imidazole-4-carboxamide] were 0.6 nM and 184 nM.
Taken in the same sequence, the figures for `Cn1cnc2c1CC[C@H]2NC(=O)c1cn(Cc2cnc(N3CC4CC4C3)nc2C(F)F)cn1` (stereo partly drawn) [Example 29, 1-[(2-{3-Azabicyclo[3.1.0]hexan-3-yl}-4-(difluoromethyl)-pyrimidin-5-yl)methyl]-N-[(4R)-1-methyl-1H,4H,5H,6H-cyclopenta[d]imidazol-4-yl]-1H-imidazole-4-carboxamide] were 2.6 nM and 336 nM.
Regarding `Cn1cnc2c1CC[C@H]2NC(=O)c1cn(Cc2ccc(N3CC4CC4C3)nc2C(F)F)nn1` (stereo partly drawn) [Example 30, 1-[(6-{3-Azabicyclo[3.1.0]hexan-3-yl}-2-(difluoromethyl)-pyridin-3-yl)methyl]-N-[(4R)-1-methyl-1H,4H,5H,6H-cyclo-penta[d]imidazol-4-yl]-1H-1,2,3-triazole-4-carboxamide], the figures for the IC50 (against Human PKK; in assay [1]) were 0.9 nM and 334 nM, respectively.
For `CCCc1nc(N2CC3CC3C2)ccc1Cn1cnc(C(=O)N[C@@H]2CCc3c2ncn3C)c1` (stereo partly drawn) [Example 31, 1-[(6-{3-Azabicyclo[3.1.0]hexan-3-yl}-2-propylpyridin-3-yl)methyl]-N-[(4R)-1-methyl-1H,4H,5H,6H-cyclopenta[d]imidazol-4-yl]-1H-imidazole-4-carboxamide] the same measures were 5.3 nM and 973 nM.
As to `Cn1cnc2c1CC[C@H]2NC(=O)c1cn(Cc2ccc(N3CC4CC4C3)nc2Cl)nn1` (stereo partly drawn) [Example 32, 1-[(6-{3-Azabicyclo[3.1.0]hexan-3-yl}-2-chloropyridin-3-yl)methyl]-N-[(4R)-1-methyl-1H,4H,5H,6H-cyclopenta-[d]imidazol-4-yl]-1H-1,2,3-triazole-4-carboxamide], the IC50 against Human PKK was 1.1 nM; in assay [1] it was 548 nM.
Taken in the same sequence, the figures for `Cn1cnc2c1CC[C@H]2NC(=O)c1cn(Cc2ccc(N3CC4C(C3)C4(F)F)nc2)nn1` (stereo partly drawn) [Example 33, 1-[(6-{6,6-Difluoro-3-azabicyclo[3.1.0]hexan-3-yl}pyridin-3-yl)methyl]-N-[(4R)-1-methyl-1H,4H,5H,6H-cyclo-penta[d]imidazol-4-yl]-1H-1,2,3-triazole-4-carboxamide] were 2.5 nM and 265 nM.
Take `Cn1cnc2c1CC[C@H]2NC(=O)c1cn(Cc2ccc(N3CC4CC4C3)nc2Br)nn1` (stereo partly drawn) [Example 34, 1-[(6-{3-Azabicyclo[3.1.0]hexan-3-yl}-2-bromopyridin-3-yl)methyl]-N-[(4R)-1-methyl-1H,4H,5H,6H-cyclopenta-[d]imidazol-4-yl]-1H-1,2,3-triazole-4-carboxamide]: the IC50 turned out to be 0.9 nM against Human PKK and 1190 nM in assay [1].
For `Cn1cnc2c1CC[C@H]2NC(=O)c1cnn(Cc2ccc(N3CC4CC4C3)c(C#N)n2)c1` (stereo partly drawn) [Example 35, 1-[(5-{3-Azabicyclo[3.1.0]hexan-3-yl}-6-cyanopyridin-2-yl)methyl]-N-[(4R)-1-methyl-1H,4H,5H,6H-cyclopenta[d]imidazol-4-yl]-1H-pyrazole-4-carboxamide] the same measures were 2.2 nM and 259 nM.
For `CCc1nc(N2CC3(CC3)C2)ccc1Cn1cnc(C(=O)N[C@@H]2CCc3c2ncn3C)c1` [Example 37, 1-[(6-{5-Azaspiro[2.3]hexan-5-yl}-2-ethylpyridin-3-yl)methyl]-N-[(4R)-1-methyl-1H,4H,5H,6H-cyclopenta[d]imidazol-4-yl]-1H-imidazole-4-carboxamide] the same measures were 0.9 nM and 125 nM.
For `Cn1cnc2c1CC[C@H]2NC(=O)c1cn(Cc2ccc(N3CC4CC4C3)nc2Br)cn1` (stereo partly drawn) [Example 39, 1-[(6-{3-Azabicyclo[3.1.0]hexan-3-yl}-2-bromopyridin-3-yl)methyl]-N-[(4R)-1-methyl-1H,4H,5H,6H-cyclopenta[d]imidazol-4-yl]-1H-imidazole-4-carboxamide] the same measures were 0.7 nM and 380 nM.
